US20100267561A1, “HERBICIDAL PYRIDAZINONE DERIVATIVES” (priority 2007, published 2010)

Assays:
Test in all cases: Test E pre-/postemergence plant response
Format in all cases: in vivo
Settings in all cases: scale 0 to 100
[1] = tested on: Italian ryegrass (Lolium multiflorum)
Outline: (§1)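 Plants scored visually versus controls on a 0–100 scale (100 = complete control) 14 to 21 days after treatment in the greenhouse. Test chemicals in a surfactant-containing non-phytotoxic solvent were applied to soil preemergence or to 1- to 4-leaf plants, 2–18 cm tall.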

[2] = tested on: black mustard (Brassica nigra)
Outline: as §1

[3] = tested on: common groundsel (Senecio vulgaris)
Outline: as §1

[4] = tested on: common purslane (Portulaca oleracea)
Outline: as §1

[5] = tested on: goosegrass (Eleusine indica)
Outline: as §1

[6] = tested on: guineagrass (Panicum maximum)
Outline: as §1

[7] = tested on: large crabgrass (Digitaria sanguinalis)
Outline: as §1

[8] = tested on: pitted morningglory (Ipomoea lacunosa)
Outline: as §1

[9] = tested on: purple nutsedge (Cyperus rotundus)
Outline: as §1

[10] = tested on: quackgrass (Elytrigia repens)
Outline: as §1

[11] = tested on: southern (S.) sandbur (Cenchrus echinatus)
Outline: as §1

[12] = tested on: surinam grass (Brachiaria decumbens)
Outline: as §1

In the case of Cc1cc(-c2ccc(Cl)cc2)nn1-c1c(OC(=O)C(C)C)cnn(C)c1=O [Compound 34], the “Plant response rating, Ryegrass, Italian” value ([1]; 16 g ai/ha, Preemergence) is reported as 80, the “Plant response rating, Ryegrass, Italian” value ([1]; 31 g ai/ha, Preemergence) is reported as 100 and the “Plant response rating, Ryegrass, Italian” value ([1]; 62 g ai/ha, Preemergence) is reported as 100. For the same compound, the “Plant response rating, Ryegrass, Italian” value ([1]; Postemergence, 8 g ai/ha) was 60, the “Plant response rating, Ryegrass, Italian” value ([1]; Postemergence, 16 g ai/ha) was 95 and the “Plant response rating, Ryegrass, Italian” value ([1]; Postemergence, 31 g ai/ha) was 100. For the same compound, the “Plant response rating, Ryegrass, Italian” value ([1]; Postemergence, 62 g ai/ha) was 100, the “Plant response rating, Mustard, Black” value ([2]; 16 g ai/ha, Preemergence) was 0 and the “Plant response rating, Mustard, Black” value ([2]; 31 g ai/ha, Preemergence) was 0. For the same compound, the “Plant response rating, Mustard, Black” value ([2]; 62 g ai/ha, Preemergence) was 0, the “Plant response rating, Mustard, Black” value ([2]; Postemergence, 8 g ai/ha) was 0 and the “Plant response rating, Mustard, Black” value ([2]; Postemergence, 16 g ai/ha) was 0. The “Plant response rating, Mustard, Black” value ([2]; Postemergence, 31 g ai/ha) was 0, the “Plant response rating, Mustard, Black” value ([2]; Postemergence, 62 g ai/ha) was 0 and the “Plant response rating, Groundsel” value ([3]; 16 g ai/ha, Preemergence) was 0. For the same compound, the “Plant response rating, Groundsel” value ([3]; 31 g ai/ha, Preemergence) was 0, the “Plant response rating, Groundsel” value ([3]; 62 g ai/ha, Preemergence) was 0 and the “Plant response rating, Groundsel” value ([3]; Postemergence, 8 g ai/ha) was 0. For the same compound, the “Plant response rating, Groundsel” value ([3]; Postemergence, 16 g ai/ha) was 0, the “Plant response rating, Groundsel” value ([3]; Postemergence, 31 g ai/ha) was 0 and the “Plant response rating, Groundsel” value ([3]; Postemergence, 62 g ai/ha) was 0. For the same compound, the “Plant response rating, Purslane” value ([4]; 16 g ai/ha, Preemergence) was 0, the “Plant response rating, Purslane” value ([4]; 31 g ai/ha, Preemergence) was 0 and the “Plant response rating, Purslane” value ([4]; Postemergence, 8 g ai/ha) was 0. For the same compound, the “Plant response rating, Purslane” value ([4]; Postemergence, 16 g ai/ha) was 0, the “Plant response rating, Purslane” value ([4]; Postemergence, 31 g ai/ha) was 0 and the “Plant response rating, Purslane” value ([4]; Postemergence, 62 g ai/ha) was 0. For the same compound, the “Plant response rating, Goosegrass” value ([5]; 16 g ai/ha, Preemergence) was 65, the “Plant response rating, Goosegrass” value ([5]; 31 g ai/ha, Preemergence) was 95 and the “Plant response rating, Goosegrass” value ([5]; 62 g ai/ha, Preemergence) was 100. The “Plant response rating, Goosegrass” value ([5]; Postemergence, 8 g ai/ha) was 0, the “Plant response rating, Goosegrass” value ([5]; Postemergence, 16 g ai/ha) was 20 and the “Plant response rating, Goosegrass” value ([5]; Postemergence, 31 g ai/ha) was 80. For the same compound, the “Plant response rating, Goosegrass” value ([5]; Postemergence, 62 g ai/ha) was 80, the “Plant response rating, Guineagrass” value ([6]; 16 g ai/ha, Preemergence) was 100 and the “Plant response rating, Guineagrass” value ([6]; 31 g ai/ha, Preemergence) was 100. For the same compound, the “Plant response rating, Guineagrass” value ([6]; 62 g ai/ha, Preemergence) was 100, the “Plant response rating, Guineagrass” value ([6]; Postemergence, 8 g ai/ha) was 95 and the “Plant response rating, Guineagrass” value ([6]; Postemergence, 16 g ai/ha) was 95. The “Plant response rating, Guineagrass” value ([6]; Postemergence, 31 g ai/ha) was 100, the “Plant response rating, Guineagrass” value ([6]; Postemergence, 62 g ai/ha) was 100 and the “Plant response rating, Crabgrass, Large” value ([7]; 31 g ai/ha, Preemergence) was 50. For the same compound, the “Plant response rating, Crabgrass, Large” value ([7]; 62 g ai/ha, Preemergence) was 100, the “Plant response rating, Crabgrass, Large” value ([7]; Postemergence, 8 g ai/ha) was 60 and the “Plant response rating, Crabgrass, Large” value ([7]; Postemergence, 16 g ai/ha) was 75. The “Plant response rating, Crabgrass, Large” value ([7]; Postemergence, 31 g ai/ha) was 100, the “Plant response rating, Crabgrass, Large” value ([7]; Postemergence, 62 g ai/ha) was 100 and the “Plant response rating, Morningglory” value ([8]; 16 g ai/ha, Preemergence) was 0. The “Plant response rating, Morningglory” value ([8]; 31 g ai/ha, Preemergence) was 0, the “Plant response rating, Morningglory” value ([8]; 62 g ai/ha, Preemergence) was 0 and the “Plant response rating, Morningglory” value ([8]; Postemergence, 8 g ai/ha) was 0. For the same compound, the “Plant response rating, Morningglory” value ([8]; Postemergence, 16 g ai/ha) was 0, the “Plant response rating, Morningglory” value ([8]; Postemergence, 31 g ai/ha) was 0 and the “Plant response rating, Morningglory” value ([8]; Postemergence, 62 g ai/ha) was 30. For the same compound, the “Plant response rating, Nutsedge, Purple” value ([9]; 16 g ai/ha, Preemergence) was 0, the “Plant response rating, Nutsedge, Purple” value ([9]; 31 g ai/ha, Preemergence) was 20 and the “Plant response rating, Nutsedge, Purple” value ([9]; 62 g ai/ha, Preemergence) was 35. For the same compound, the “Plant response rating, Nutsedge, Purple” value ([9]; Postemergence, 8 g ai/ha) was 0, the “Plant response rating, Nutsedge, Purple” value ([9]; Postemergence, 16 g ai/ha) was 0 and the “Plant response rating, Nutsedge, Purple” value ([9]; Postemergence, 31 g ai/ha) was 0. The “Plant response rating, Nutsedge, Purple” value ([9]; Postemergence, 62 g ai/ha) was 0, the “Plant response rating, Quackgrass” value ([10]; 16 g ai/ha, Preemergence) was 20 and the “Plant response rating, Quackgrass” value ([10]; 31 g ai/ha, Preemergence) was 50. The “Plant response rating, Quackgrass” value ([10]; 62 g ai/ha, Preemergence) was 70, the “Plant response rating, Quackgrass” value ([10]; Postemergence, 8 g ai/ha) was 0 and the “Plant response rating, Quackgrass” value ([10]; Postemergence, 16 g ai/ha) was 0. For the same compound, the “Plant response rating, Quackgrass” value ([10]; Postemergence, 31 g ai/ha) was 30, the “Plant response rating, Quackgrass” value ([10]; Postemergence, 62 g ai/ha) was 40 and the “Plant response rating, Sandbur, S.” value ([11]; 16 g ai/ha, Preemergence) was 75. The “Plant response rating, Sandbur, S.” value ([11]; 31 g ai/ha, Preemergence) was 90, the “Plant response rating, Sandbur, S.” value ([11]; 62 g ai/ha, Preemergence) was 100 and the “Plant response rating, Sandbur, S.” value ([11]; Postemergence, 8 g ai/ha) was 75. For the same compound, the “Plant response rating, Sandbur, S.” value ([11]; Postemergence, 16 g ai/ha) was 75, the “Plant response rating, Sandbur, S.” value ([11]; Postemergence, 31 g ai/ha) was 90 and the “Plant response rating, Sandbur, S.” value ([11]; Postemergence, 62 g ai/ha) was 100. For the same compound, the “Plant response rating, Surinam Grass” value ([12]; 16 g ai/ha, Preemergence) was 98, the “Plant response rating, Surinam Grass” value ([12]; 31 g ai/ha, Preemergence) was 100 and the “Plant response rating, Surinam Grass” value ([12]; 62 g ai/ha, Preemergence) was 100. The “Plant response rating, Surinam Grass” value ([12]; Postemergence, 8 g ai/ha) was 90, the “Plant response rating, Surinam Grass” value ([12]; Postemergence, 16 g ai/ha) was 98 and the “Plant response rating, Surinam Grass” value ([12]; Postemergence, 31 g ai/ha) was 100. The “Plant response rating, Surinam Grass” value ([12]; Postemergence, 62 g ai/ha) was 100.
